From patent publication US20070053975A1, “Ramipril formulation” (Selamine Limited, priority 2005, published 2007)

How the values were obtained:
[1] = Stability of Ramipril on exposure to stomach juices / acid pH; type: physicochemical
[2] = oral administration, fasted state; cited from earlier work
[3] = cited from earlier work

Stability on exposure to stomach juices (acid pH) [1]	SMILES	Time to peak plasma concentrations [2]	Absorption in the presence of food [3]
breaks down	CCOC(=O)[C@H](CCc1ccccc1)N[C@@H](C)C(=O)N1[C@H](C(=O)O)C[C@@H]2CCC[C@@H]21 [Ramipril, (2S,3aS,6aS)-1[(S)-N-[(S)-1-carboxy-3-phenylpropyl]alanyl]octahydrocyclopenta[b]pyrrole-2-carboxylic acid, 1-ethyl ester]	one	–
–	CC(=O)Oc1ccccc1C(=O)O [aspirin]	–	delayed
